Results: patent USRE48335E1, “Polymyxin derivatives as antimicrobial compounds” (priority 2014, dated 2020)
In brackets after ≈: the same amount, converted by molar mass. Positions of bridges follow the written chain, without caps; N, C: chain ends. Non-standard residues stand in square brackets, D forms with d. Residues, ends and D or L forms follow the SMILES beside them. *: point of attachment. Phenylacetyl(4-Me) = Cc1ccc(CC(=O)*)cc1; X32 = Cc1ccc(C(=O)*)c(Cl)c1; X31 = O=C(c1ccc(Cl)cc1F)*; Octanoyl = CCCCCCCC(=O)*; Dab = NCC[C@H](N)C(=O)O; Abu = CC[C@H](N)C(=O)O; Dap = NC[C@H](N)C(=O)O; X40 = O=C(c1ccccc1F)*; Aib = CC(C)(N)C(=O)O

Key:
[1] = test system: Pseudomonas aeruginosa
Summary of the method: (§1)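 Lipopeptide TFA salts are serially diluted in cation-adjusted Mueller-Hinton broth and inoculated per the CLSI M100-S18 broth microdilution method. The MIC is then recorded, with polymyxin B sulphate included as a control.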

[2] = test system: Enterobacter cloacae
Summary of the method: as §1

[3] = test system: Acinetobacter baumannii
Summary of the method: as §1

Compound | Minimum inhibitory concentration, Pa ATCC 27853 [1] | Minimum inhibitory concentration, Pa FADDI-PA022 [1] | Minimum inhibitory concentration, Pa FADDI-PA025 [1] | Minimum inhibitory concentration, Ec FADDI-EC001 [2] | Minimum inhibitory concentration, Ec FADDI-EC003 [2] | Minimum inhibitory concentration, Ec FADDI-EC006 [2] | Minimum inhibitory concentration, Ab A ATCC 17978 [3] | Minimum inhibitory concentration, Ab ATCC 19606 [3] | Minimum inhibitory concentration, Ab FADDI-AB034 [3]
CCCCCCCC(=O)N[C@@H](CCN)C(=O)N[C@H](C(=O)N[C@@H](CN)C(=O)N[C@H]1CCNC(=O)[C@H]([C@@H](C)O)NC(=O)[C@H](CCN)NC(=O)[C@H](CN)NC(=O)[C@H]([C@@H](C)O)NC(=O)[C@@H](CC(C)C)NC(=O)[C@H](CCN)NC1=O)[C@@H](C)O [Compound 51] (Octanoyl-[Dab]T[Dap][Dab][Dab][dL]T[Dap][Dab]T; lactam 4-C) | 1 µg/mL (≈ 0.897 µM) | 0.5 µg/mL (≈ 0.448 µM) | >32 µg/mL | 0.25 µg/mL (≈ 0.224 µM) | 0.25 µg/mL (≈ 0.224 µM) | 1 µg/mL (≈ 0.897 µM) | 4 µg/mL (≈ 3.59 µM) | 4 µg/mL (≈ 3.59 µM) | 8 µg/mL (≈ 7.17 µM)
CCCCCCCC(=O)N[C@@H](CCN)C(=O)N[C@H](C(=O)N[C@@H](CN)C(=O)N[C@H]1CCNC(=O)[C@H]([C@@H](C)O)NC(=O)[C@H](CCN)NC(=O)[C@H](CCN)NC(=O)C(C)(C)NC(=O)[C@@H](CC(C)C)NC(=O)[C@H](CCN)NC1=O)[C@@H](C)O [Compound 45] (Octanoyl-[Dab]T[Dap][Dab][Dab][dL][Aib][Dab][Dab]T; lactam 4-C) | 0.5 µg/mL (≈ 0.449 µM) | 1 µg/mL (≈ 0.898 µM) | 16 µg/mL (≈ 14.4 µM) | 0.5 µg/mL (≈ 0.449 µM) | 0.25 µg/mL (≈ 0.225 µM) | 0.5 µg/mL (≈ 0.449 µM) | 4 µg/mL (≈ 3.59 µM) | 8 µg/mL (≈ 7.19 µM) | 2 µg/mL (≈ 1.8 µM)
CC[C@@H]1NC(=O)[C@@H](CC(C)C)NC(=O)[C@H](CCN)NC(=O)[C@@H](NC(=O)[C@H](CN)NC(=O)[C@@H](NC(=O)[C@H](CCN)NC(=O)c2ccccc2F)[C@@H](C)O)CCNC(=O)[C@H]([C@@H](C)O)NC(=O)[C@H](CCN)NC(=O)[C@H](CCN)NC1=O [Compound 73] (X40-[Dab]T[Dap][Dab][Dab][dL][Abu][Dab][Dab]T; lactam 4-C) | 0.5 µg/mL (≈ 0.451 µM) | 1 µg/mL (≈ 0.901 µM) | 4 µg/mL (≈ 3.61 µM) | 0.25 µg/mL (≈ 0.225 µM) | 0.25 µg/mL (≈ 0.225 µM) | 1 µg/mL (≈ 0.901 µM) | 4 µg/mL (≈ 3.61 µM) | 8 µg/mL (≈ 7.21 µM) | 4 µg/mL (≈ 3.61 µM)
CC[C@@H]1NC(=O)[C@@H](CC(C)C)NC(=O)[C@H](CCN)NC(=O)[C@@H](NC(=O)[C@H](CN)NC(=O)[C@@H](NC(=O)[C@H](CCN)NC(=O)Cc2ccc(C)cc2)[C@@H](C)O)CCNC(=O)[C@H]([C@@H](C)O)NC(=O)[C@H](CCN)NC(=O)[C@H](CCN)NC1=O [Compound 80] ({Phenylacetyl(4-Me)}-[Dab]T[Dap][Dab][Dab][dL][Abu][Dab][Dab]T; lactam 4-C) | 0.5 µg/mL (≈ 0.447 µM) | 1 µg/mL (≈ 0.893 µM) | 2 µg/mL (≈ 1.79 µM) | <0.125 µg/mL | 0.25 µg/mL (≈ 0.223 µM) | 4 µg/mL (≈ 3.57 µM) | 1 µg/mL (≈ 0.893 µM) | 4 µg/mL (≈ 3.57 µM) | 2 µg/mL (≈ 1.79 µM)
CC[C@@H]1NC(=O)[C@@H](CC(C)C)NC(=O)[C@H](CCN)NC(=O)[C@@H](NC(=O)[C@H](CN)NC(=O)[C@@H](NC(=O)[C@H](CCN)NC(=O)c2ccc(C)cc2Cl)[C@@H](C)O)CCNC(=O)[C@H]([C@@H](C)O)NC(=O)[C@H](CCN)NC(=O)[C@H](CCN)NC1=O [Compound 101] (X32-[Dab]T[Dap][Dab][Dab][dL][Abu][Dab][Dab]T; lactam 4-C) | 0.5 µg/mL (≈ 0.439 µM) | 2 µg/mL (≈ 1.75 µM) | 2 µg/mL (≈ 1.75 µM) | <0.125 µg/mL | <0.125 µg/mL | 0.25 µg/mL (≈ 0.219 µM) | 0.5 µg/mL (≈ 0.439 µM) | 0.5 µg/mL (≈ 0.439 µM) | 1 µg/mL (≈ 0.877 µM)
CC[C@@H]1NC(=O)[C@@H](CC(C)C)NC(=O)[C@H](CCN)NC(=O)[C@@H](NC(=O)[C@H](CN)NC(=O)[C@@H](NC(=O)[C@H](CCN)NC(=O)c2ccc(Cl)cc2F)[C@@H](C)O)CCNC(=O)[C@H]([C@@H](C)O)NC(=O)[C@H](CCN)NC(=O)[C@H](CCN)NC1=O [Compound 134] (X31-[Dab]T[Dap][Dab][Dab][dL][Abu][Dab][Dab]T; lactam 4-C) | 0.5 µg/mL (≈ 0.437 µM) | 1 µg/mL (≈ 0.874 µM) | 1 µg/mL (≈ 0.874 µM) | 0.25 µg/mL (≈ 0.219 µM) | <0.125 µg/mL | <0.125 µg/mL | 2 µg/mL (≈ 1.75 µM) | 2 µg/mL (≈ 1.75 µM) | 0.5 µg/mL (≈ 0.437 µM)
